The values that follow are results of earlier work, collected in patent US20060183719A1 (priority 2005, published 2006).

Each structure is given as a SMILES string. Where two headings read alike, the source gives them in different places.

As for `C[C@H]1c2cccc(O)c2C(=O)C2=C(O)[C@]3(O)C(=O)C(C(N)=O)=C(O)[C@@H](N(C)C)[C@@H]3[C@@H](O)[C@@H]21` [doxycycline], for the setting “administered orally”, the absorption entry was “about 90%”.

Consider `CN(C)c1ccc(O)c2c1CC1CC3C(N(C)C)C(O)=C(C(N)=O)C(=O)C3(O)C(O)=C1C2=O` (centres unmarked) [minocycline], for which the absorption result (in vivo, po) is on record as “about 90%”.
